Like-named read-outs stand apart in the source and are kept apart here. Where a SMILES comes first, the peptide text is derived from it.
Columns and labels:
[1] = tested on: human breast adenocarcinoma cell line (MDA-MB-231); type: cell-based; details: 48 h
Protocol: (§1) Some of the sample peptides synthesized in Test Example 1 were evaluated for antitumor activity on several types of cultured tumor cells.
(§2) Specifically, test tumor cells used were currently commercially available human non small cell lung cancer cell line (NCI-H2444), human non small cell lung cancer cell line (HCC827), human alveolar basal epithelial adenocarcinoma cell line (A549), human small cell lung cancer cell line (NCI-H446), human melanoma cell line (A2058) and human breast adenocarcinoma cell line (MDA-MB-231). As a comparison, a commercially available cultured normal human mammary epithelial cell line (MCF-12F) was used.
(§3) (2) human melanoma cell line (A2058) and human breast adenocarcinoma cell line (MDA-MB-231):
(§4) DMEM medium (product from Wako Pure Chemical Industries, Ltd.) containing 2 mM L-glutamine, 0.1 mM non-essential amino acids, 50 units/mL penicillin, 50 μg/mL streptomycin and 10% FBS; and
(§5) The above six cell lines were cultured in each of the media indicated above and the number of cells was adjusted to be approximately 5×10^3 per well in a 96-well plate. The amount of the medium was 100 μL per well.
(§6) The 96-well plate was placed in a CO2 incubator and pre-incubated under conditions of 37° C. and 5% CO2 for approximately one day (21 hours to 24 hours).
(§7) Thereafter, peptide-containing test media were respectively prepared for each concentration so that the concentration of any of the sample peptides to be evaluated was either 12.5 μM or 25 μM, and were supplied to wells (namely, wells after pre-incubation above) in which cells to be evaluated were cultured at 90 μL per well. The 96-well plate was placed back in the CO2 incubator and incubated under conditions of 37° C. and 5% CO2 for 48 hours.
(§8) The number (n) of test wells per each peptide concentration in the test section to which peptides were added was 3. Therefore, the values indicated in the result section in the table hereinbelow are averages of results obtained from 3 test wells. The cell viability (%) was determined as indicated hereinbelow.
(§9) After a 48-hour incubation, the medium in the wells was replaced by 100 μL fresh medium without peptide, and 10 μL of a reagent for cell proliferation measurement “Cell Counting Kit-8” (product from Dojindo Laboratories) containing “water-soluble tetrazolium salt (WST-8)” as a chromogenic reagent was added to each well. The 96-well plate was then placed back in the CO2 incubator and incubated under conditions of 37° C. and 5% CO2 for 1.5 hours to 2 hours.
(§10) After completion of the incubation, the cell culture medium to which the reagent was added was recovered and the cell viability (%) was evaluated by a colorimetric method in which the absorbance at a wavelength of 450 nm (the value corrected with the absorbance at a wavelength 650 nm: A450-A650) due to reduction of the tetrazolium salt was measured. Specifically, the cell viability (%) of each test cell line was calculated from the measured absorbance as a relative value to the measured value (measured absorbance) in the comparative test section in which the incubation over 48 hours as above was carried out only with a medium without peptide, that was regarded as 100% of the cell viability.

[2] = tested on: human melanoma cell line (A2058); type: cell-based; details: 48 h
Protocol: as §1, §2, §3, §4, §5, §6, §7, §8, §9, §10

[3] = tested on: human non small cell lung cancer cell line (NCI-H2444); assay: Antitumor activity evaluation, cell viability by Cell Counting Kit-8 (WST-8); type: cell-based
Protocol: (§11) The cell viability (%) was determined as indicated hereinbelow.

[4] = tested on: human non small cell lung cancer cell line (HCC827); assay: as above; type: cell-based
Protocol: as §11

in vitro = type: cell-based; details: human
Protocol: (3) cultured normal human mammary epithelial cell line (MCF-12F):
DMEM/F12 medium (product from Wako Pure Chemical Industries, Ltd.) containing 20 ng/mL recombinant EGF, 10 μg/mL insulin, 0.5 μg/mL hydrocortisone and 10% FBS.
as §11

[5] = tested on: human small cell lung cancer cell line (NCI-H446); type: cell-based; details: 48 h
Protocol: as §11

[6] = tested on: tumor cells tested in the present Test Example; assay: Evaluation test on antitumor activities of synthetic peptides, overall finding; type: cell-based, human; details: compared to comparative samples 3 to 5
Protocol: as §11

[7] = tested on: human alveolar basal epithelial adenocarcinoma cell line (A549); details: 48 hours, relative to medium without peptide = 100%
Protocol: as §1, §2
The above six cell lines were cultured in each of the media indicated above and the number of cells was adjusted to be approximately 5×10^3 per well in a 96-well plate. The amount of the medium was 100 μL per well. […]
as §7, with “The 96-well plate was placed back in the CO2 incubator and incubated under conditions of 37° C. and 5% CO2 for 48 hours.” left out
The number (n) of test wells per each peptide concentration in the test section to which peptides were added was 3. […] The cell viability (%) was determined as indicated hereinbelow. […]

Row | SMILES | Cell viability (%) ([1]; 12.5 µM) | Cell viability (%) ([1]; 25 µM) | Cell viability (%) ([2]; 12.5 µM) | Cell viability (%) ([2]; 25 µM) | Cell viability (%) ([3]; human, 48 h, 12.5 µM) | Cell viability (%) ([3]; human, 48 h, 25 µM) | Cell viability (%) ([4]; human, 48 h, 12.5 µM) | Cell viability (%) ([4]; human, 48 h, 25 µM) | viability at 48 h, 12.5 µM (in vitro) | viability at 48 h, 25 µM (in vitro) | Cell viability (%) ([5]; 12.5 µM) | Cell viability (%) ([5]; 25 µM) | antitumor activity (inhibitory activity of proliferation of tumor cells) [6] | Cell viability (%) ([3]; NCI-H2444, test peptide concentration 12.5 μM, 48 hours, relative to medium without peptide = 100%) | Cell viability (%) ([3]; NCI-H2444, test peptide concentration 25.0 μM, 48 hours, relative to medium without peptide = 100%) | Cell viability (%) ([4]; HCC827, test peptide concentration 12.5 μM, 48 hours, relative to medium without peptide = 100%) | Cell viability (%) ([4]; HCC827, test peptide concentration 25.0 μM, 48 hours, relative to medium without peptide = 100%) | Cell viability (%) ([7]; test peptide concentration 12.5 μM) | Cell viability (%) ([7]; test peptide concentration 25.0 μM)
1 | CC[C@H](C)[C@H](NC(=O)[C@H](CCC(N)=O)NC(=O)[C@@H](N)CCSC)C(=O)N1CCC[C@H]1C(=O)N[C@@H](CCC(N)=O)C(=O)N[C@@H](C)C(=O)N1CCC[C@H]1C(=O)N[C@@H](Cc1c[nH]c2ccccc12)C(=O)N1CCC[C@H]1C(=O)N[C@H](C(=O)N[C@H](C(=O)N[C@@H](Cc1c[nH]c2ccccc12)C(=O)N[C@@H](C)C(=O)N[C@H](C(=O)N[C@@H](CC(C)C)C(=O)N[C@@H](CCC(N)=O)C(=O)N[C@@H](CC(C)C)C(=O)NCC(=O)N[C@@H](Cc1c[nH]c2ccccc12)C(=O)N[C@@H](CCCNC(=N)N)C(=O)N[C@@H](CCCCN)C(=O)N[C@@H](CCCCN)C(=O)N[C@@H](CCCNC(=N)N)C(=O)N[C@H](C(=O)N[C@@H](CC(C)C)C(=O)N[C@@H](CCCNC(=N)N)C(=O)N[C@@H](CCCCN)C(=O)N[C@@H](CC(N)=O)C(=O)N[C@@H](CC(=O)O)C(=O)N[C@@H](CCCNC(=N)N)C(=O)N[C@@H](CCCCN)C(=O)N[C@@H](CCCCN)C(=O)N[C@@H](CCCNC(=N)N)C(N)=O)[C@@H](C)O)C(C)C)C(C)C)C(C)C [Sample 1] (H-MQIPQAPWPVVWAVLQLGWRKKRTLRKNDRKKR-NH2; N-terminus assumed) | 63.1% | 9.9% | 50.4% | 6.7% | 59.6% | 6.8% | 49.8% | 11.8% | 97.4% | 62.3% | 2.5% | 0.5% | excellent antitumor activity |  |  |  |  |  | 
2 | CC[C@H](C)[C@H](NC(=O)[C@H](CCC(N)=O)NC(=O)[C@@H](N)CCSC)C(=O)N1CCC[C@H]1C(=O)N[C@@H](CCC(N)=O)C(=O)N[C@@H](C)C(=O)N1CCC[C@H]1C(=O)N[C@@H](Cc1c[nH]c2ccccc12)C(=O)N1CCC[C@H]1C(=O)N[C@H](C(=O)N[C@H](C(=O)N[C@@H](Cc1c[nH]c2ccccc12)C(=O)N[C@@H](C)C(=O)N[C@H](C(=O)N[C@@H](CC(C)C)C(=O)N[C@@H](CCC(N)=O)C(=O)N[C@@H](CC(C)C)C(=O)NCC(=O)N[C@@H](Cc1c[nH]c2ccccc12)C(=O)N[C@@H](CCCNC(=N)N)C(=O)N[C@@H](CCCNC(=N)N)C(=O)N[C@@H](CCCCN)C(=O)N[C@@H](CCCCN)C(=O)N[C@@H](CCCNC(=N)N)C(=O)N[C@@H](CCCNC(=N)N)C(=O)N[C@@H](CCC(N)=O)C(=O)N[C@@H](CCCNC(=N)N)C(=O)N[C@@H](CCCNC(=N)N)C(=O)N[C@@H](CCCNC(=N)N)C(N)=O)C(C)C)C(C)C)C(C)C [Sample 2] (H-MQIPQAPWPVVWAVLQLGWRRKKRRQRRR-NH2; N-terminus assumed) |  |  |  |  |  |  |  |  |  |  |  |  | excellent antitumor activity | 50.4% | 3.6% | 62.9% | 4.9% | 52.4% | 9.1%
3 | CC[C@H](C)[C@H](NC(=O)[C@H](CCCNC(=N)N)NC(=O)[C@@H](N)CCSC)C(=O)N[C@@H](Cc1ccccc1)C(=O)N[C@@H](C)C(=O)N[C@H](C(=O)N[C@@H](Cc1ccccc1)C(=O)N[C@H](C(=O)N[C@@H](Cc1ccccc1)C(=O)N[C@@H](CCSC)C(=O)N[C@H](C(=O)N[C@@H](Cc1ccc(O)cc1)C(=O)N[C@@H](Cc1c[nH]c2ccccc12)C(=O)N[C@@H](Cc1c[nH]cn1)C(=O)N[C@@H](CC(C)C)C(=O)N[C@@H](CC(C)C)C(=O)N[C@@H](CC(N)=O)C(=O)N[C@@H](C)C(=O)N[C@@H](CCCCN)C(=O)N[C@@H](CCCCN)C(=O)N[C@@H](CCCNC(=N)N)C(=O)N[C@H](C(=O)N[C@@H](CC(C)C)C(=O)N[C@@H](CCCNC(=N)N)C(=O)N[C@@H](CCCCN)C(=O)N[C@@H](CC(N)=O)C(=O)N[C@@H](CC(=O)O)C(=O)N[C@@H](CCCNC(=N)N)C(=O)N[C@@H](CCCCN)C(=O)N[C@@H](CCCCN)C(=O)N[C@@H](CCCNC(=N)N)C(N)=O)[C@@H](C)O)[C@@H](C)O)[C@@H](C)CC)C(C)C [Sample 3, reference compound] (H-MRIFAVFIFMTYWHLLNAKKRTLRKNDRKKR-NH2; N-terminus assumed) | 89.3% | 83.7% | 100.9% | 87.5% | 106.3% | 87.7% | 105.4% | 120.6% | 87.3% | 81.7% | 67.9% | 56.7% |  |  |  |  |  |  | 
4 | CC[C@H](C)[C@H](NC(=O)[C@H](CC(C)C)NC(=O)[C@H](CC(C)C)NC(=O)[C@H](CCSC)NC(=O)[C@H](CCC(N)=O)NC(=O)[C@H](CCC(N)=O)NC(=O)[C@H](CCC(N)=O)NC(=O)[C@@H](NC(=O)[C@@H](NC(=O)[C@@H](NC(=O)[C@@H]1CCCN1C(=O)[C@@H]1CCCN1C(=O)[C@H](Cc1c[nH]c2ccccc12)NC(=O)[C@H](Cc1c[nH]c2ccccc12)NC(=O)[C@H](Cc1c[nH]c2ccccc12)NC(=O)[C@@H]1CCCN1)C(C)C)C(C)C)C(C)C)C(=O)NCC(=O)N[C@@H](C)C(=O)N[C@@H](C)C(=O)N[C@@H](CCCNC(=N)N)C(=O)N[C@@H](CCCCN)C(=O)N[C@@H](CCCCN)C(=O)N[C@@H](CCCNC(=N)N)C(=O)N[C@H](C(=O)N[C@@H](CC(C)C)C(=O)N[C@@H](CCCNC(=N)N)C(=O)N[C@@H](CCCCN)C(=O)N[C@@H](CC(N)=O)C(=O)N[C@@H](CC(=O)O)C(=O)N[C@@H](CCCNC(=N)N)C(=O)N[C@@H](CCCCN)C(=O)N[C@@H](CCCCN)C(=O)N[C@@H](CCCNC(=N)N)C(N)=O)[C@@H](C)O [Sample 4] (H-PWWWPPVVVQQQMLLIGAARKKRTLRKNDRKKR-NH2; N-terminus assumed) |  |  |  |  |  |  | 110.9% | 102.6% |  |  |  |  |  |  |  |  |  |  | 
5 | CC(C)C[C@H](NC(=O)[C@@H](NC(=O)[C@H](CCCNC(=N)N)NC(=O)[C@H](CCCCN)NC(=O)[C@@H](N)CCCCN)[C@@H](C)O)C(=O)N[C@@H](CCCNC(=N)N)C(=O)N[C@@H](CCCCN)C(=O)N[C@@H](CC(N)=O)C(=O)N[C@@H](CC(=O)O)C(=O)N[C@@H](CCCNC(=N)N)C(=O)N[C@@H](CCCCN)C(=O)N[C@@H](CCCCN)C(=O)N[C@@H](CCCNC(=N)N)C(N)=O [Sample 5, KKRTLRKNDRKKR-CONH2] (H-KKRTLRKNDRKKR-NH2; N-terminus assumed) |  |  |  |  |  |  | 106.7% | 106.5% |  |  |  |  |  |  |  |  |  |  | 

Reference: patent publication US11352408B2, “Antitumor peptide having PD-1 signal sequence and utilization thereof” (TOAGOSEI CO.,LTD., priority 2017, dated 2022)
